Laboratory results: PubChem BioAssay AID1963968 (Molecular Pharmacology Branch, DTP, NCI, 2024)

System: 945468-187-T-J3-PDC spheroids with HUVEC/MSC, viability
Assay: Anticancer human tumor 945468-187-T-J3-PDC patient-derived rectal carcinoma cell line growth inhibition [PI3K]
Conditions: for IC50: curve of first compound; for viability, T/C: stronger effect = lower value; active = viability on the fitted dose curve at most 10% of control; inactive = the rest
In short: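 Three cell types, namely tumor cells, endothelial cells and mesenchymal stem cells, formed each spheroid. Combinations with four PI3K inhibitors were screened at clinically achievable concentrations decreasing by half-log, and spheroid viability was recorded.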
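Note: spheroids exposed to agents for 7 days before viability read.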
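Throughout, for viability, T/C: 100% = DMSO vehicle control viability.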

CC(=O)c1c(C)c2cnc(Nc3ccc(N4CCNCC4)cn3)nc2n(C2CCCC2)c1=O + COc1c(OCCCN2CCOCC2)ccc2c3n(c(=NC(=O)c4cnc(N)nc4)nc12)CCN3
inactive: viability, T/C (second compound 0.00316 µM, first compound 0.000316 µM) 99% | viability, T/C (second compound 0.00316 µM, first compound 0.001 µM) 106% | viability, T/C (second compound 0.00316 µM, first compound 0.00316 µM) 118% | viability, T/C (second compound 0.00316 µM, first compound 0.01 µM) 92.3% | viability, T/C (second compound 0.00316 µM, first compound 0.0316 µM) 103% | viability, T/C (second compound 0.00316 µM, first compound 0.1 µM) 101% | viability, T/C (second compound 0.01 µM, first compound 0.000316 µM) 92.4% | viability, T/C (second compound 0.01 µM, first compound 0.001 µM) 87.1% | viability, T/C (second compound 0.01 µM, first compound 0.00316 µM) 90.3% | viability, T/C (second compound 0.01 µM, first compound 0.01 µM) 97.5% | viability, T/C (second compound 0.01 µM, first compound 0.0316 µM) 95.7% | viability, T/C (second compound 0.01 µM, first compound 0.1 µM) 104% | viability, T/C (second compound 0.0316 µM, first compound 0.000316 µM) 82.9% | viability, T/C (second compound 0.0316 µM, first compound 0.001 µM) 90.3% | viability, T/C (second compound 0.0316 µM, first compound 0.00316 µM) 89.9% | viability, T/C (second compound 0.0316 µM, first compound 0.01 µM) 85.2% | viability, T/C (second compound 0.0316 µM, first compound 0.0316 µM) 89% | viability, T/C (second compound 0.0316 µM, first compound 0.1 µM) 74.8% | viability, T/C (second compound 0.1 µM, first compound 0.000316 µM) 43.1% | viability, T/C (second compound 0.1 µM, first compound 0.001 µM) 48.6% | viability, T/C (second compound 0.1 µM, first compound 0.00316 µM) 48.7% | viability, T/C (second compound 0.1 µM, first compound 0.01 µM) 37.6% | viability, T/C (second compound 0.1 µM, first compound 0.0316 µM) 37.9% | viability, T/C (second compound 0.1 µM, first compound 0.1 µM) 32.5% | viability, T/C (second compound 0.316 µM, first compound 0.000316 µM) 23% | viability, T/C (second compound 0.316 µM, first compound 0.001 µM) 20.6% | viability, T/C (second compound 0.316 µM, first compound 0.00316 µM) 20% | viability, T/C (second compound 0.316 µM, first compound 0.01 µM) 19.2% | viability, T/C (second compound 0.316 µM, first compound 0.0316 µM) 19.6% | viability, T/C (second compound 0.316 µM, first compound 0.1 µM) 17.6% | viability, T/C (second compound 1 µM, first compound 0.000316 µM) 16% | viability, T/C (second compound 1 µM, first compound 0.001 µM) 17.7% | viability, T/C (second compound 1 µM, first compound 0.00316 µM) 16.7% | viability, T/C (second compound 1 µM, first compound 0.01 µM) 16.2% | viability, T/C (second compound 1 µM, first compound 0.0316 µM) 13.6% | viability, T/C (second compound 1 µM, first compound 0.1 µM) 14.1%
< 0.000316 µM: IC50 (second compound 0.1 µM) | IC50 (second compound 0.316 µM) | IC50 (second compound 1 µM)
> 0.1 µM: IC50 (second compound 0.00316 µM) | IC50 (second compound 0.01 µM) | IC50 (second compound 0.0316 µM)
